Key:
Cytochrome P450 26B1 = biological target: T1, Cytochrome P450 26B1 (Homo sapiens, UniProt Q9NR63); assay: (§1) Cell-Based Inhibitor Assay: CYP26A1 or CYP26B1 stably transfected HeLa cells were maintained in Minimum Essential Medium (MEM) containing 10% fetal bovine serum (FBS) and 100 μg/mL hygromycin. Exponentially growing cells were harvested by incubation in trypsin. Cells were then collected and re-plated in 48-well culture plates at 5×10^5 cells in 0.2 mL of culture medium containing 0.05 μCi [3H]-RA in the presence or absence of increasing concentrations of a test compound. The test compounds were diluted in dimethyl sulfoxide (DMSO) and then added in duplicate to wells at 0.01, 0.1, 1, 10 and 100 μM final concentration. […] Cells were incubated for 3 hours at 37° C. Retinoids were then extracted using the procedure of Bligh, et al., (1959), Canadian Journal of Biochemistry 37, 911-917, which was modified by using dichloromethane instead of chloroform. Each sample's water soluble radioactivity level was quantified using a β-scintillation counter (using Ecolume scintillation fluid, available from MP Biomedicals of Solon, Ohio, USA).
T1 sequence (Q9NR63 whole entry): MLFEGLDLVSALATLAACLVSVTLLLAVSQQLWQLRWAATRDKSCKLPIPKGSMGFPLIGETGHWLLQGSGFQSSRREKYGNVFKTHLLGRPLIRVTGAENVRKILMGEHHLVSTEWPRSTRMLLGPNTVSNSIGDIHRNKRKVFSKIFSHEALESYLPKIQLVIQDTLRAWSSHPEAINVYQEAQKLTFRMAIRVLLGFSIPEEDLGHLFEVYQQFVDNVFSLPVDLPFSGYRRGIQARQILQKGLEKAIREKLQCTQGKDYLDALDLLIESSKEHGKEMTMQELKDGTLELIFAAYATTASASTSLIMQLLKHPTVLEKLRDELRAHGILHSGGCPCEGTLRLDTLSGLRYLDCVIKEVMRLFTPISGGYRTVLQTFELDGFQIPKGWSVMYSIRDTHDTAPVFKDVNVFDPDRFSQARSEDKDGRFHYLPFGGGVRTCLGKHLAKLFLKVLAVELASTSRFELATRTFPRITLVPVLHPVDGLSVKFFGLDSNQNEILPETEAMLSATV

Cytochrome P450 26A1 = biological target: T2, Cytochrome P450 26A1 (Homo sapiens, UniProt O43174); assay: as §1
T2 sequence (O43174 whole entry): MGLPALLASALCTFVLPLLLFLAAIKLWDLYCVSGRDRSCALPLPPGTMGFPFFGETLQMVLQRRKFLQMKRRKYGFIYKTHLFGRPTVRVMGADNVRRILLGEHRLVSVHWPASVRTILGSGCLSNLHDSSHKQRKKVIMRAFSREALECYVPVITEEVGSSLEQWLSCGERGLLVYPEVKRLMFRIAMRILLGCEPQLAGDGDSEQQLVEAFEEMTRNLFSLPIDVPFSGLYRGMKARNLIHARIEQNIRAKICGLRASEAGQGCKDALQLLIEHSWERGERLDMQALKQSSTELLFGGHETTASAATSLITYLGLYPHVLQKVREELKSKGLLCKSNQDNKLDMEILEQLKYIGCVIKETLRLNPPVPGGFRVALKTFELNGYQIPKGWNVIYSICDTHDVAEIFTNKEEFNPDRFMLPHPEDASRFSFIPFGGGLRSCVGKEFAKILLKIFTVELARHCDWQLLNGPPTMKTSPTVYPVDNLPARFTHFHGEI

Row | IC50 (Cytochrome P450 26B1) [µM] | IC50 (Cytochrome P450 26A1) [µM] | Compound
1 | > 1000 | 0.47 | Cc1cc2c(cc1S(=O)(=O)Nc1ccc(CC(=O)O)cc1)C(C)(C)CCC2(C)C
2 | 21.8 | 1.9 | Cc1ccc(NS(=O)(=O)c2cc(C)c3c(c2)C(C)(C)CC(C)(C)O3)cc1
